Source: PMC6616483, “Non-Pungent n-3 Polyunsaturated Fatty Acid (PUFA)-Derived Capsaicin Analogues as Potential Functional Ingredients with Antioxidant and Carbohydrate-Hydrolysing Enzyme Inhibitory Activities” (Antioxidants, 2019)
“And” between values parts separate entries of the source, which are not always exact repeats. Equal values may be shown once. Read-outs that look alike come from different tables or passages of the source. Blank lines part the entries; values can stand above or below the compound they belong to.

Assays:
[1] = target: α-glucosidase; assay: α-Glucosidase inhibitory assay; format: biochemical; settings: for Ki: calculated following the Cheng–Prusoff equation; for IC50 / α-Glucosidase IC50: means ± S.D. (n = 3)
Procedure: The α-glucosidase inhibitory assay was achieved following the procedure previously described. Absorbance was measured at 500 nm using a UV-Vis spectrophotometer (model V-550, Jasco, Milan, Italy). […] Ki value was calculated as previously described.

[2] = tested on: type 1 diabetic rats; design: method as in PMID 28230360; settings: orally 6 mg/Kg for 28 days; cited from earlier work
[3] = tested on: β-cells; design: method as in PMID 31022842; settings: cited from earlier work
[4] = Ferric reducing ability power (FRAP) test; settings: means ± S.D. (n = 3)
Procedure: The FRAP test was performed following the protocol previously described. Absorbance was measured using a UV-Vis spectrophotometer (model V-550, Jasco, Milan, Italy) at 470 nm. FRAP value was expressed as mM Fe(II)/g. Butylated hydroxytoluene (BHT) was used as a positive control.

[5] = β-Carotene bleaching test
Procedure: The β-carotene bleaching test was performed as previously described. The absorbance of the samples, standard, and control was measured using a UV-Vis spectrophotometer (model V-550, Jasco, Milan, Italy) at 470 nm against a blank at t = 0 and successively at 30 and 60 min. Propyl gallate was used as positive control.

[6] = ABTS assay; settings: means ± S.D. (n = 3); NA: not active at maximum concentration tested; read-out: ABTS Test IC50
Procedure: The ABTS assay was performed according to a previously reported protocol. Absorbance was measured at 734 nm using a UV-Vis spectrophotometer (model V-550, Jasco, Milan, Italy) Ascorbic acid was used as positive control.

[7] = DPPH free radical scavenging assay; settings: means ± S.D. (n = 3); NA: not active at maximum concentration tested; read-out: DPPH Test IC50
Procedure: The DPPH assay was performed according to a previously reported protocol. Absorbance was measured at 517 nm using a UV-Vis spectrophotometer (model V-550, Jasco, Milan, Italy). Ascorbic acid was used as positive control.

[8] = tested on: healthy human subjects; design: method as in PMID 16612838; settings: oral administration; cited from earlier work
[9] = target: T1, α-amylase (Sus scrofa, UniProt P00690); assay: α-Amylase inhibitory assay; format: biochemical; settings: means ± S.D. (n = 3)
T1 sequence (P00690 16-511): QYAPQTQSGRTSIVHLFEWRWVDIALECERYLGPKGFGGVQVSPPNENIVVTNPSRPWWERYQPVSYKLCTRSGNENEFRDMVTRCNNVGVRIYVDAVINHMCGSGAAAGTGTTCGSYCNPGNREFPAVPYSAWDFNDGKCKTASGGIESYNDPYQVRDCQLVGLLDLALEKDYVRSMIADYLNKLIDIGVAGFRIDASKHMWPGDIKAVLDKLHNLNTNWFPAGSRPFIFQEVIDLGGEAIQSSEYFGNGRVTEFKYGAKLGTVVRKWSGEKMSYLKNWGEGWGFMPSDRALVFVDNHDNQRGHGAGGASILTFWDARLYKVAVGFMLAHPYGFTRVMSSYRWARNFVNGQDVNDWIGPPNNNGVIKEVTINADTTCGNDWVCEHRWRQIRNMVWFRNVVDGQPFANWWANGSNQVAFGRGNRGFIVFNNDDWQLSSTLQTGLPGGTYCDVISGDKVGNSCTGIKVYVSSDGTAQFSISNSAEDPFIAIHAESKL
Procedure: The α-amylase inhibition assay was accomplished as previously described. Absorbance was measured at 540 nm using a UV-Vis spectrophotometer (model V-550, Jasco, Milan, Italy). […] Ki values were calculated following the Cheng–Prusoff equation [18].

[10] = read-out: β-Carotene Bleaching Test IC50 30 min, 30 min of incubation
[11] = read-out: β-Carotene Bleaching Test IC50 60 min, 60 min of incubation

Compound: COc1cc(CNC(=O)CCCC/C=C/C(C)C)ccc1O [Capsaicin, capsaicin]
Ki [1]: 1 µM
IC50 [1]: 13 ± 1 µM
intestinal glucose absorption [2]: inhibited intestinal glucose absorption
release of insulin compared to the control ([3]; 15 min of incubation): ineffective
release of insulin compared to the control ([3]; 120 min of incubation): ineffective
FRAP Test [4]: 30 ± 3 μM Fe(II)/g
IC50 [5, 10]: 10 ± 1 µM
IC50 [5, 11]: 11 ± 1 µM
IC50 [6]: 0.3 µM
IC50 [7]: 0.6 µM
plasma insulin concentrations after glucose loading [8]: did not significantly differ from the control group

Compound: CC/C=C\C/C=C\C/C=C\C/C=C\C/C=C\CCCC(=O)O [EPA, eicosapentaenoic acid]
Ki [1]: 10 µM
IC50 [1]: 250 ± 9 µM
α-Glucosidase IC50 [1]: No significant carbohydrate-hydrolysing enzymes inhibition
α-Amylase IC50 [9]: No significant carbohydrate-hydrolysing enzymes inhibition
release of insulin compared to the control ([3]; 15 min of incubation): ineffective
release of insulin compared to the control ([3]; 120 min of incubation): ineffective
FRAP Test [4]: 4.8 ± 0.8 μM Fe(II)/g
IC50 [5, 10]: 74 ± 5 µM
IC50 [5, 11]: 310 ± 10 µM

Compound: CC/C=C\C/C=C\C/C=C\C/C=C\C/C=C\C/C=C\CCC(=O)O [DHA, docosahexaenoic acid]
Ki [1]: 10 µM
IC50 [1]: 268 ± 9 µM
α-Glucosidase IC50 [1]: No significant carbohydrate-hydrolysing enzymes inhibition
α-Amylase IC50 [9]: No significant carbohydrate-hydrolysing enzymes inhibition
release of insulin compared to the control ([3]; 15 min of incubation): ineffective
release of insulin compared to the control ([3]; 120 min of incubation): ineffective
FRAP Test [4]: 9 ± 1 μM Fe(II)/g
IC50 [5, 10]: 70 ± 4 µM
IC50 [5, 11]: 287 ± 10 µM

Compound: Cc1cc(C(C)(C)C)c(O)c(C(C)(C)C)c1 [BHT, Butylated hydroxytoluene]
FRAP Test [4]: 63 ± 4 μM Fe(II)/g

IC50 [6]: 9.6 ± 0.9 µM
IC50 [7]: 23 ± 2 µM
Compound: O=C1O[C@H]([C@@H](O)CO)C(O)=C1O [Ascorbic acid]

IC50 [5, 10]: 0.4 µM
IC50 [5, 11]: 0.4 µM
Compound: CCCOC(=O)c1cc(O)c(O)c(O)c1 [Propyl gallate]

Compound: COc1cc(COC(=O)CCCC/C=C/C(C)C)ccc1O [capsiate]
intestinal glucose absorption [2]: inhibited intestinal glucose absorption

Ki [1]: 2 µM
IC50 [1]: 23.9 µM and 24 µM
IC50 [5, 10]: 46 ± 3 µM
IC50 [5, 11]: 56 ± 3 µM
IC50 [6]: 0.3 µM
IC50 [7]: 0.8 µM
Compound: CC/C=C\C/C=C\C/C=C\C/C=C\C/C=C\C/C=C\CCC(=O)NCc1ccc(O)c(OC)c1 [DHVA, N-docosahexaenoyl vanillylamine]
release of insulin compared to the control ([3]; 15 min of incubation): ineffective
release of insulin compared to the control ([3]; 120 min of incubation): slight decrease
FRAP Test [4]: 18 ± 2 μM Fe(II)/g

Compound: CC/C=C\C/C=C\C/C=C\C/C=C\C/C=C\CCCC(=O)NCc1ccc(O)c(OC)c1 [EPVA, N-eicosapentaenoyl vanillylamine]
Ki [1]: 2 µM
IC50 [1]: 23.6 µM and 24 µM
release of insulin compared to the control ([3]; 15 min of incubation): significant increase
release of insulin compared to the control ([3]; 120 min of incubation): significant increase
FRAP Test [4]: 28 ± 2 μM Fe(II)/g
IC50 [5, 10]: 9 ± 1 µM
IC50 [5, 11]: 11 ± 1 µM
IC50 [6]: 0.2 µM
IC50 [7]: 1 µM
